The source of these data is PubChem BioAssay (NCI).

Among the test systems are UACC-62 melanoma; A549 NSCLC; MDA-N; ACHN renal; EKVX NSCLC; M14 melanoma; MDA-MB-435; MALME-3M melanoma; SK-MEL-5 melanoma; UACC-257 melanoma; RPMI-8226 leukemia; SR leukemia; SW-620 colon; HCT-116 colon; HOP-62 NSCLC; LOX IMVI melanoma; TK-10 renal; HCT-15 colon; CCRF-CEM leukemia.
Test in all cases: NCI-60 cell line screen, 48 h

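Test compounds were applied to cells in 96-well plates for 48 hours at 5 doses. At the TGI there is no net growth.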

Turning to `C=CC(C)(C)NC(C(=O)N1CCC[C@H]1c1nc(-c2nc(C(=O)OCC=C(C)C)c(C)o2)c(C)o1)C(C)C` (some centres not stated), the TGI in the experiment on UACC-62 melanoma is > 60.9 µM; in the experiment on A549 NSCLC, > 100 µM; in the experiment with MDA-N, 56.2 µM; in the experiment on ACHN renal, > 68.1 µM; in the experiment with EKVX NSCLC, > 90.1 µM; with M14 melanoma it was > 100 µM. Also, the TGI was > 72 µM in the experiment on MDA-MB-435; > 100 µM in the experiment on MALME-3M melanoma; > 72.7 µM with SK-MEL-5 melanoma; > 100 µM in the experiment on UACC-257 melanoma; > 100 µM with RPMI-8226 leukemia; > 100 µM with SR leukemia. Moreover, the TGI in the experiment with SW-620 colon is > 100 µM; with HCT-116 colon it was > 100 µM; in the experiment on HOP-62 NSCLC, > 100 µM; in the experiment with LOX IMVI melanoma it was > 74.5 µM; in the experiment on TK-10 renal, > 100 µM; in the experiment with HCT-15 colon it was > 95.5 µM. In addition, the TGI with CCRF-CEM leukemia is > 100 µM.
For `CC/C(Cl)=N\OC(=O)Nc1ccc(F)c(Cl)c1`, the TGI came out at 46.3 µM in the experiment with UACC-62 melanoma; 54.9 µM with A549 NSCLC; 33.4 µM in the experiment with MDA-N; 26.7 µM in the experiment on ACHN renal; 32.9 µM in the experiment on EKVX NSCLC; 23.1 µM with M14 melanoma. Besides, the TGI with MDA-MB-435 was 39.4 µM; with MALME-3M melanoma, 9.29 µM; in the experiment with SK-MEL-5 melanoma, 29 µM; with UACC-257 melanoma, 31.9 µM; in the experiment on RPMI-8226 leukemia, > 100 µM; with SR leukemia, 13.1 µM. Further, the TGI stood at 6.92 µM in the experiment on SW-620 colon; 35.3 µM in the experiment on HCT-116 colon; 34.3 µM with HOP-62 NSCLC; 9.68 µM with LOX IMVI melanoma; 31.3 µM in the experiment with TK-10 renal; 35.5 µM in the experiment on HCT-15 colon. The same compound had a TGI with CCRF-CEM leukemia of 4.91 µM.
With `CCOC(=O)N1c2ccccc2N(C(=O)OCC)C1CC(=O)/C=C/c1ccccc1`, the TGI stood at 10.2 µM in the experiment on UACC-62 melanoma; 18.1 µM in the experiment with A549 NSCLC; 15.8 µM with MDA-N; 15.7 µM in the experiment with ACHN renal; 8.54 µM with EKVX NSCLC; 19.3 µM with M14 melanoma. Besides, the TGI came out at 8.11 µM with MDA-MB-435; 18.9 µM with MALME-3M melanoma; 8.92 µM in the experiment on SK-MEL-5 melanoma; 21.9 µM with UACC-257 melanoma; 26.6 µM in the experiment with RPMI-8226 leukemia; 5.75 µM in the experiment on SR leukemia. Also, the TGI in the experiment on SW-620 colon worked out at 25 µM; in the experiment with HCT-116 colon, 11.6 µM; with HOP-62 NSCLC it was 17.6 µM; with LOX IMVI melanoma, 7.06 µM; with TK-10 renal it was 14.4 µM; in the experiment with HCT-15 colon, 12.9 µM. Further, the TGI in the experiment on CCRF-CEM leukemia was 4.61 µM.
